These results are taken from ChEMBL document CHEMBL1926546, “New N-methylpiperazinyl derivatives of bicyclic antiprotozoal compounds” (Eur J Med Chem, 2012).

A short description of data set [1]: Selectivity index, ratio of IC50 for rat L6 cells to IC50 for Trypanosoma brucei rhodesiense STIB900. Format: toxicity, cell-based. The conditions noted are these: L6 cells (versus Trypanosoma brucei rhodesiense STIB900), read-out: Ratio IC50.
The subject of data set [2] is Trypanosoma brucei rhodesiense. In words: Antitrypanosomal activity against Trypanosoma brucei rhodesiense STIB900 bloodstream forms after 72 hrs by serial dilution Alamar blue assay. The conditions noted are these: STIB900, 72 h. Format: functional, organism-based. (In general: Alamar Blue is a resazurin reagent that responds to reducing activity.)
Data set [3] in a line: Selectivity index, ratio of IC50 for rat L6 cells to IC50 for chloroquine and pyrimethamine-resistant Plasmodium falciparum K1. Format: toxicity, cell-based. The conditions noted are these: L6 cells (versus Plasmodium falciparum K1), read-out: Ratio IC50.
In another data set the test system is L6. In words: Cytotoxicity against rat L6 cells. In kind it is cell-based.
The next data set has as its system Plasmodium falciparum. Kind of data set: Antiplasmodial activity against chloroquine and pyrimethamine-resistant Plasmodium falciparum K1 assessed as [3H]hypoxanthine incorporation after 48 hrs by liquid scintillation counter. In kind it is functional, organism-based.
Data set [4] concerns Plasmodium berghei. Kind of data set: Antimalarial activity against Plasmodium berghei ANKA infected in albino mouse assessed as inhibition of parasitemia at 30 to 50 mg/kg, ip administered as single dose post-infection measured after 24 hrs by Giemsa staining-based microscopy. Format: functional. The conditions noted are these: dose mg/kg 30-50; route intraperitoneal.
Data set [5] relates to Plasmodium berghei. In words: Antimalarial activity against Plasmodium berghei ANKA infected in albino mouse assessed as prolongation of survival time at 30 to 50 mg/kg, ip administered as single dose post infection (reference value: 6.7 days). The settings on record: dose mg/kg 30-50; route intraperitoneal. In kind it is functional.
The test system of data set [6] is Trypanosoma brucei brucei. Kind of data set: […] activity against Trypanosoma brucei brucei STIB 795 infected in NMRI mouse assessed as reduction in parasitemia compound administered on day 3 and day 6 post infection measured after 24 hrs. Format: functional, organism-based.
Data set [7] relates to Trypanosoma brucei brucei. Kind of data set: […] activity against Trypanosoma brucei brucei STIB 795 infected in NMRI mouse assessed as reduction in parasitemia compound administered on day 3 and day 6 post infection measured on day 10. Format: functional, organism-based.

pIC50: −log10 of the molar value. Calls of active or inactive are those of the source. The calls are words filed in the database; no cut-off is given here.

`c1ccc(C2CC3(N4CCCCC4)CCN(CCCN4CCCCC4)C2C(c2ccccc2)C3)cc1` (stereo not drawn): the selectivity ratio in data set [1] was found to be 7.5. Besides, the pIC50 (usually the negative decadic logarithm of the IC50, by convention in mol/L) in [2] is 4.73.
Consider `CCN(CC)CCC(=O)OC1CC2(N(C)C)CC(c3ccccc3)C1C(c1ccccc1)C2` (stereo not drawn), for which the selectivity ratio in data set [3] was 54.9; in [1], 215.
With `CN1CCN(C23CCNC(C(c4ccccc4)C2)C(c2ccccc2)C3)CC1` (racemic), the values for the pIC50 (with L6; in the data set on Plasmodium falciparum; in [2]) were 4.01, 5.82 and 6.42, respectively. In addition, the selectivity ratio in data set [3] stood at 64.6; in data set [1], 255.
For `CN1CCN(CCC(=O)N2CCC3(N4CCN(C)CC4)CC(c4ccccc4)C2C(c2ccccc2)C3)CC1` (racemic), in that order: 3.79, 5.71, 5.44, 82.5 and 44.5.
For `CN1CCN(CCN2CCC3(N(C)C)CC(c4ccccc4)C2C(c2ccccc2)C3)CC1` (racemic), in that order: 4.15, 6.28, 4.87, 135 and 5.19.
Take `CN1CCN(CCN2CCC3(N4CCCC4)CC(c4ccccc4)C2C(c2ccccc2)C3)CC1` (racemic): in the data set on Plasmodium berghei [4], the “inhibition (INH)” value is 39%. Further, the figures for the pIC50 (in the data set with L6; in the data set on Plasmodium falciparum; in [2]) were 4.30, 7.64 and 5.20, respectively. In the data set with Plasmodium berghei [5], the MST came to 8.3 days. Also, the results for the selectivity ratio in [3] and in [1] were 2190 and 7.93, respectively.
On to `CN1CCN(CCN2CCC3(N4CCCCC4)CC(c4ccccc4)C2C(c2ccccc2)C3)CC1` (racemic), for which the pIC50 in the data set with L6 was 3.90; with Plasmodium falciparum, 6.52; in data set [2], 4.36. The values for the selectivity ratio in data set [3] and in data set [1] were 424 and 2.91, respectively.
For `CN1CCN(CCCN2CCC3(N(C)C)CC(c4ccccc4)C2C(c2ccccc2)C3)CC1` (racemic), in that order: 4.26, 6.29, 4.94, 107 and 4.74.
As to `CN1CCN(CCCN2CCC3(N4CCCC4)CC(c4ccccc4)C2C(c2ccccc2)C3)CC1` (racemic), the “inhibition (INH)” value with Plasmodium berghei [4] was 39%. In addition, the results for the pIC50 (in the data set with L6; in the data set with Plasmodium falciparum; in data set [2]) were 4.56, 6.57 and 5.16, respectively. For the same compound, the MST in the data set on Plasmodium berghei [5] is 7.7 days. Also, the selectivity ratio in data set [3] was determined as 102; in data set [1], 3.93.
Take `CN1CCN(CCCN2CCC3(N4CCCCC4)CC(c4ccccc4)C2C(c2ccccc2)C3)CC1` (racemic): the negative logarithm of the IC50 (pIC50) in the data set on L6 is 4.20; in the data set with Plasmodium falciparum, 6.96; in data set [2], 4.76. Also, the selectivity ratio turned out to be 568 in data set [3] and 3.55 in [1].
`CN1CCN(CCCN2CCC3(N4CCN(C)CC4)CC(c4ccccc4)C2C(c2ccccc2)C3)CC1` (racemic): the pIC50 in the data set on L6 is 4.32; in the data set with Plasmodium falciparum, 6.60; in data set [2], 5.18. Besides, the selectivity ratio was found to be 191 in data set [3] and 7.16 in [1].
The like results for `CN1CCN(CC(=O)NC2CC3(N4CCN(C)CC4)CC(c4ccccc4)C2C(c2ccccc2)C3)CC1` (racemic) were, in that order, 4.38, 6.21, 5.69, 67.9 and 20.4.
Consider `CN1CCN(CCC(=O)NC2CC3(N4CCN(C)CC4)CC(c4ccccc4)C2C(c2ccccc2)C3)CC1` (racemic), for which the pIC50 in the data set with L6 was 4.17; in the data set with Plasmodium falciparum, 6.26; in data set [2], 5.48. The results for the selectivity ratio in [3] and in data set [1] were 123 and 20.6, respectively.
On to `CN1CCN(CCC(=O)OC2CC3(N(C)C)CC(c4ccccc4)C2C(c2ccccc2)C3)CC1` (racemic), for which the negative logarithm of the IC50 (pIC50) with L6 was 4.51; with Plasmodium falciparum, 6.34; in data set [2] it was 6.68. In addition, the selectivity ratio in [3] is 67.7; in [1], 148.
Regarding `CN1CCN(CCC(=O)OC2CC3(N4CCCC4)CC(c4ccccc4)C2C(c2ccccc2)C3)CC1` (racemic), the pIC50 in the data set with L6 is 4.67; with Plasmodium falciparum it was 6.59; in data set [2], 6.35. Also, the selectivity ratio was determined as 82 in [3] and 47.4 in data set [1].
On to `CN1CCN(CCC(=O)OC2CC3(N4CCCCC4)CC(c4ccccc4)C2C(c2ccccc2)C3)CC1` (racemic), for which the pIC50 in the data set on L6 is 4.63; in the data set on Plasmodium falciparum, 7.22; in data set [2], 7.06. The result in [6] and in [7] was Active. For the same compound, the figures for the selectivity ratio in [3] and in data set [1] were 392 and 271, respectively.
In the case of `CN1CCN(CCCC(=O)OC2CC3(N(C)C)CC(c4ccccc4)C2C(c2ccccc2)C3)CC1` (racemic), the negative-log IC50 (pIC50) is 4.70 in the data set on L6, 6.62 in the data set on Plasmodium falciparum and 7.10 in [2]. Besides, the selectivity ratio amounted to 82.7 in [3] and 248 in [1].
The like results for `CN1CCN(CCCC(=O)OC2CC3(N4CCCC4)CC(c4ccccc4)C2C(c2ccccc2)C3)CC1` (racemic) were, in that order, 4.99, 6.92, 6.82, 84.7 and 67.7.
The like results for `CN1CCN(CCCC(=O)OC2CC3(N4CCCCC4)CC(c4ccccc4)C2C(c2ccccc2)C3)CC1` (racemic) were, in that order, 4.65, 7.30, 6.80, 446 and 139.
As for `C[C@@H]1CC[C@H]2[C@@H](C)C(=O)O[C@@H]3O[C@@]4(C)CC[C@@H]1[C@]32OO4` [ARTEMISININ], in the data set with Plasmodium falciparum, the pIC50 was 8.19.
As to `Nc1nc(N)nc(Nc2ccc([As]3SCC(CO)S3)cc2)n1` (stereo not drawn) [MELARSOPROL], the selectivity ratio in [1] stood at 1940. Moreover, the pIC50 in data set [2] was 8.05.
